{"source": "patent EP0316592A2", "about": "“3'-Fluoro-2',3'-dideoxyuridine, and its therapeutic application” (Stichting REGA V.Z.W., priority 1987, dated 1989)", "key": {"HIV [1]": {"tested_on": "HIV", "settings": "MT4 lymphocytes; cited from earlier work"}, "HIV [2]": {"tested_on": "HIV", "settings": "ATH8 T-lymphocyte cell line; cited from earlier work"}, "C3H cells": {"tested_on": "C3H cells", "experiment": "Cytotoxicity for C3H cells (alteration of normal cell morphology)", "type": "cell-based, mouse", "settings": "alteration of normal cell morphology, C3H cells"}, "Molt/4F dCyd kinase": {"molecular_target": "T1, Molt/4F dCyd kinase (Homo sapiens, UniProt P27707)", "T1 construct": "endogenous in cells; host or cells: Molt/4F cells (sonicated extract, 30-70% ammonium sulfate fraction, dialyzed)", "T1 sequence (P27707 whole entry)": "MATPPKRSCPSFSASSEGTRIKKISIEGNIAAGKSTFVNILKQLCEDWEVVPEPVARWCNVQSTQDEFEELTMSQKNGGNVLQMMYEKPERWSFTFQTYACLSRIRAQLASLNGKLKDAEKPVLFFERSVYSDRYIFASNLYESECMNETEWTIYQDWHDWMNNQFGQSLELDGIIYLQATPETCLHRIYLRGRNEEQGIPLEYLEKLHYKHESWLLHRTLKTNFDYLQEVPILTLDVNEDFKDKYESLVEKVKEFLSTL", "experiment": "Inhibition of dCyd kinase (Lineweaver-Burk)", "type": "biochemical", "procedure": "ddUrd and the 3′-fluoro- and 3′-azido-substituted pyrimidine 2′,3′-dideoxynucleoside analogues were evaluated for their inhibitory effect against dThd and dCyd kinase.\ndThd kinase and dCyd kinase were prepared from exponen tially growing Molt/4F cells, which were first washed (2x) with phosphate-buffered saline at 4° and then homogenized by sonication. The suspensions were clarified by centrifugation at 25,000-27,000 x g for 30 min. The 30-70% (NH₄)₂SO₄ precipitate of the supernatant was resuspended in buffer containing 10 uM potassium phosphate, pH 7.5, 10 mM β-mercaptoethanol and 0.1 M KCl, dialyzed against the same buffer, and used for the dThd kinase and the dCyd kinase assays. In these experiments, (2-¹⁴C)dThd and (U-¹⁴C)dCyd served as the radiolabelled substrates. The apparent Km and Ki values were derived from Lineweaver-Burk plots, using a linear regression analysis program. The assay procedures have been described in detail (J. Balzarini et al, (1983) and J. Balzarini et al, Biochem. Pharmacol. 31, 3673-3682 (1982))."}, "[3]": {"tested_on": "Moloney murine sarcoma virus (MSV)", "experiment": "Inhibition of transformation of C3H cells by MSV", "type": "cell-based", "procedure": "Moloney murine sarcoma virus (MSV) was prepared from tumors induced by in vivo infection of 10 day-old NMRI mice according to the procedure described by De Clercq et al (Proc. Soc. Exp. Biol. Med. 137, 590-594 (1971)).\nddUrd and the substituted pymiridine 2′,3′-dideoxynucleoside analogues were examined for their inhibitory effect on the transformation of mouse embryo C3H fibroblasts by Moloney murine sarcoma virus (MSV).\nC3H cells were seeded at 20,000 cells per ml into wells of Costar Tissue Culture Cluster plates (48 wells per plate) and grown to confluency. Cell cultures were then infected by 150 foci-forming units of MSV during 90 min, whereafter the culture medium was replaced by 1 ml fresh medium containing different concentrations of the test compound. After 6 days, the transformation of the cell cultures was examined microscopically."}, "[4]": {"molecular_target": "T2, bacterial thymidine phosphorylase (Escherichia coli, UniProt P07650)", "T2 construct": "purchased Sigma Chemical Co., St. Louis, MO", "T2 sequence (P07650 whole entry)": "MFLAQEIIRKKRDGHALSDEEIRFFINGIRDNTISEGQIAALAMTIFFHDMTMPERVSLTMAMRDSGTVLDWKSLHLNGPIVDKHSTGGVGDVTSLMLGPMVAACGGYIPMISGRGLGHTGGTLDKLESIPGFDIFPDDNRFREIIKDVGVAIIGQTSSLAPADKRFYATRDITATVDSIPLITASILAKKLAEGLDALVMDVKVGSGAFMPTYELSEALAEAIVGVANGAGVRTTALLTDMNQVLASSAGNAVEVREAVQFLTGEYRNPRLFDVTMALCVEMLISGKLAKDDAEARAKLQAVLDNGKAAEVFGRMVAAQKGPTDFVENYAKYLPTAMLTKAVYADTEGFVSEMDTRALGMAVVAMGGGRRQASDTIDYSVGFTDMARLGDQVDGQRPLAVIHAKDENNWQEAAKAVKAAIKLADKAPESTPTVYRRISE", "experiment": "Phosphorolytic cleavage by dThd phosphorylase", "type": "biochemical", "settings": "for Initial velocity of phosphorolysis: 25°C, 0.1 M sodium phosphate buffer, pH 7.0, N.D. = not detectable with 25 units of enzyme", "procedure": "Phosphorolytic cleavage of the test compounds was assessed using purified bacterial dThd phosphorylase (Sigma Chemical Co., St. Louis, MO) with the aid of a Beckman spectrophotometer UV/Vis 5200; the absorbance change during the enzyme reaction was continuously monitored at 25°C at the wavelength where the difference of absorption between the nucleoside and its free base was maximal. The reaction mixtures for all the assays consisted of enzyme and non-satura ting concentrations of nucleoside in 0.1 M sodium phosphate buffer, pH 7.0. The initial velocity of phosphorolysis was expressed as nmol/min/enzyme unit."}}}
{"smiles": "Cc1cn([C@H]2C=C[C@@H](CO)O2)c(=O)[nH]c1=O", "note": "[2′,3′-didehydro-2′,3′-dideoxythymidine]", "values": [{"measurement": "concentration that protects MT4 cells against HIV", "setting": "HIV [1]", "result": "0,04 µM"}]}
{"smiles": "Cc1cn([C@H]2CC[C@@H](CO)O2)c(=O)[nH]c1=O", "note": "[2′,3′-dideoxythymidine]", "values": [{"measurement": "concentration that protects MT4 cells against HIV", "setting": "HIV [1]", "result": 1, "unit": "µM"}]}
{"smiles": "[N-]=[N+]=N[C@H]1C[C@H](n2ccc(N)nc2=O)O[C@@H]1CO", "note": "[AzddCyd, 3′-Azido-2′,3′-dideoxycytidine]", "values": [{"measurement": "anti-retroviral effect compared with ddCyd", "setting": "HIV [2]", "result": "much less effective than ddCyd"}, {"measurement": "MSV-induced cyto-pathogenicity CD50", "setting": "C3H cells", "result": ">400", "unit": "µM"}, {"measurement": "Ki/Km", "setting": "Molt/4F dCyd kinase; Km 5.2 to 6.4 µM", "result": 58}, {"measurement": "Ki", "setting": "Molt/4F dCyd kinase; substrate (U-14C)dCyd", "result": 354, "unit": "µM"}, {"measurement": "Type of inhibition", "setting": "Molt/4F dCyd kinase; with respect to dCyd", "result": "competitive"}, {"measurement": "EC50", "setting": "[3]; Moloney murine sarcoma virus, 144 h, 50% reduction of transformation of C3H cells by MSV, 6 days, read-out: MSV-induced cyto-pathogenicity ED50", "result": 70, "unit": "µM"}, {"measurement": "MSV-induced cyto-pathogenicity S.I.", "setting": "[3]; Selectivity index or ratio of CD50 to ED50, C3H cells", "result": "> 5.7"}, {"measurement": "susceptibility to phosphorolysis by dThd phosphorylase (in words)", "setting": "[4]; purified bacterial dThd phosphorylase", "result": "totally resistant"}]}
{"smiles": "Cc1cn([C@H]2C[C@H](N=[N+]=[N-])[C@@H](CO)O2)c(=O)[nH]c1=O", "note": "[AzddThd, 3′-azido-2′,3′-dideoxythymidine]", "values": [{"measurement": "concentration that protects MT4 cells against HIV", "setting": "HIV [1]", "result": 0.02, "unit": "µM"}]}
{"smiles": "CCc1cn([C@H]2C[C@H](O)[C@@H](CO)O2)c(=O)[nH]c1=O", "note": "[dEtUrd]", "values": [{"measurement": "Initial velocity of phosphorolysis", "setting": "[4]", "result": 0.893, "unit": "nmol/min/unit"}]}
{"smiles": "O=c1ccn([C@H]2C[C@H](O)[C@@H](CO)O2)c(=O)[nH]1", "note": "[dUrd]", "values": [{"measurement": "Initial velocity of phosphorolysis", "setting": "[4]", "result": 361, "unit": "nmol/min/unit"}]}
